{"source": "paper PMC6592549", "about": "“Ligand-guided homology modeling drives identification of novel histamine H3 receptor ligands” (PLoS ONE, 2019)", "key": {"[1]": {"molecular_target": "Histamine H3 receptor (H3R)", "settings": "Table A in S1 File, cited from earlier work"}, "[2]": {"molecular_target": "Histamine H3 receptor (H3R)", "settings": "Table A in S1 File, cited from earlier work", "remark": "listed apart in the source"}, "hH3R": {"molecular_target": "T1, hH3R (Homo sapiens, UniProt Q9Y5N1)", "T1 construct": "expressed in transfected cells; host or cells: HEK-293 cells stably expressing hH3R", "T1 sequence (Q9Y5N1 whole entry)": "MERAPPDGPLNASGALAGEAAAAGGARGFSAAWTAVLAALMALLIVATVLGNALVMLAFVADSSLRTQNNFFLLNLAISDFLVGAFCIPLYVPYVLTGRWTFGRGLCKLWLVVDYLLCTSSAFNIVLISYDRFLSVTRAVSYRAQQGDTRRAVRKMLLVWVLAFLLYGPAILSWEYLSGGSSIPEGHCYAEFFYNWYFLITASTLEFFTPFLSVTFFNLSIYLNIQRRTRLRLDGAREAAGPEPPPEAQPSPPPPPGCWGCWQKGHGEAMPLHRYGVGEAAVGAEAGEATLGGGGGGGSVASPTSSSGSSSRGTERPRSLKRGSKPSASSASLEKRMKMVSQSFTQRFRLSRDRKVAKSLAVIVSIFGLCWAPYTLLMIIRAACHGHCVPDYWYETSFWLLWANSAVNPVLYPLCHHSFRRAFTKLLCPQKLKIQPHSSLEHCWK", "assay": "Radioligand depletion assay with [3H]-N-alpha-methylhistamine on crude hH3R membrane extracts", "format": "binding", "settings": "for Ki: mean of at least three independent experiments, each in triplicates, Cheng-Prusoff; for H3R binding, result in words: radioligand depletion assay against H3R", "procedure": "Radioligand depletion assays were performed as described previously using crude hH3R membrane extracts obtained from HEK-293 cells stably expressing the hH3R [15, 57]. Briefly, crude membrane extracts were incubated with various concentrations of test ligands (between 0.01 nM and 100 μM) and [3H]-N-alpha-methylhistamine. Bound radioligand were harvested through GF/B filters and measured using liquid scintillation counting. Data analysis were performed with GraphPad Prism 6 using non-linear regression. The Ki values for each experiment were obtained according to Cheng-Prusoff and converted to pKi values to allow statistical analysis. Mean values were calculated from at least three independent experiments, each performed in triplicates (Table E in S1 File)."}}, "note": "Like-named read-outs stand apart in the source and are kept apart here.", "data": [{"smiles": "CC(C)N1CCN(C(=O)[C@H]2CC23CCN(C2CCOCC2)CC3)CC1", "note": "[CHEMBL3124968]", "values": [{"measurement": "IC50", "setting": "[1]; ref 8 (S1 File)", "result": 8.3, "unit": "nM"}]}, {"smiles": "CCNC(=O)C1CC(F)(c2ccc(CN3CCCC3)c(F)c2)C1", "note": "(centres unmarked) [CHEMBL2151197]", "values": [{"measurement": "Ki", "setting": "[2]; ref 9 (S1 File)", "result": 2.3, "unit": "nM"}]}, {"smiles": "CN(C)CCc1ccc(NC(=O)Nc2ccc(CCN(C)C)cc2)cc1", "note": "[CHEMBL2387294]", "values": [{"measurement": "IC50", "setting": "[1]; ref 2 (S1 File)", "result": 6.5, "unit": "nM"}]}, {"smiles": "O=C(c1csc(-c2ccccc2)n1)N1CCCN(C2CC2)CC1", "note": "[compound 5]", "values": [{"measurement": "Ki", "setting": "hH3R", "result": 148, "unit": "nM"}, {"measurement": "H3R binding, result in words", "setting": "hH3R", "result": "nanomolar concentration ranges"}]}, {"smiles": "N#CC(C#N)=C1N(CCCN2CCCCC2)CCN1CCCN1CCCCC1", "note": "[CHEMBL257391]", "values": [{"measurement": "Ki", "setting": "[2]; ref 6 (S1 File)", "result": 2.4, "unit": "nM"}]}, {"smiles": "C[C@@H]1CCCN1CCc1cc2cc(CNc3ccc(Cl)nn3)ccc2o1", "note": "[CHEMBL362952]", "values": [{"measurement": "Ki", "setting": "[2]; ref 10 (S1 File)", "result": 0.3, "unit": "nM"}]}, {"smiles": "C[C@@H]1C[C@@](O)(C#Cc2cccc3ccccc23)[C@@H](C)CN1C", "note": "[CHEMBL1269844]", "values": [{"measurement": "IC50", "setting": "[1]; ref 3 (S1 File)", "result": 9, "unit": "nM"}]}, {"smiles": "c1nc([C@H]2C[C@@H]2CCNCC2CCCCC2)c[nH]1", "note": "[CHEMBL214312]", "values": [{"measurement": "Ki", "setting": "[2]; ref 7 (S1 File)", "result": 5.3, "unit": "nM"}]}, {"smiles": "CCN1CCN(C(=O)c2ccc(-c3nc4ccccc4s3)s2)CC1", "note": "[compound 6]", "values": [{"measurement": "Ki", "setting": "hH3R", "result": 38.2, "unit": "nM"}, {"measurement": "H3R binding, result in words", "setting": "hH3R", "result": "nanomolar concentration ranges"}]}, {"smiles": "Cc1csc(-c2ccc(C(=O)N3CCN(C)CC3)cc2)n1", "note": "[compound 8]", "values": [{"measurement": "H3R binding, result in words", "setting": "hH3R", "result": "inactive"}]}, {"smiles": "c1ccc2c(CCNc3ccc(CN4CCOCC4)cc3)c[nH]c2c1", "note": "[CHEMBL2419581]", "values": [{"measurement": "Ki", "setting": "[2]; ref 4 (S1 File)", "result": 4.3, "unit": "nM"}]}, {"smiles": "C[C@@H]1CCCN1CCCOc1ccc(-c2cc(-c3ccccc3)c(=O)n(C)c2)cc1", "note": "[CHEMBL1923737]", "values": [{"measurement": "Ki", "setting": "[2]; ref 5 (S1 File)", "result": 3.5, "unit": "nM"}]}]}
